# Test results from US20130236481A1, “HETEROCYCLE -ARYL COMPOUNDS FOR INFLAMMATION AND IMMUNE-RELATED USES” (SYNTA PHARMACEUTICALS CORP., priority 2007, published 2013).
# Counter-ions that a name gives are not always drawn.
# Test system: IL-2 production
# Assay: Inhibition of IL-2 production in PHA-activated Jurkat cells (ELISA)
# Format: cell-based
# Conditions: Homo sapiens, Jurkat, 20 h, PHA 2.5 μg/mL, IL-2 ELISA
# Method: Jurkat cells were placed in a 96 well plate (0.5 million cells per well in 1% FBS medium) then a test compound of this invention was added at different concentrations. After 10 minutes, the cells were activated with PHA (final concentration 2.5 μg/mL) and incubated for 20 hours at 37° C. under CO2. The final volume was 200 μL. Following incubation, the cells were centrifuged and the supernatants collected and stored at −70° C. prior to assaying for IL-2 production. A commercial ELISA kit (IL-2 Eli-pair, Diaclone Research, Besancon, France) was used to detect production of IL-2, from which dose response curves were obtained. The IC50 value was calculated as the concentration at which 50% of maximum IL-2 production after stimulation was inhibited versus a non-stimulation control.
row,IC50,SMILES
1,73 nM,"COc1ncc(Cl)cc1-c1cc(-c2ccc(NC(=O)c3c(F)cccc3F)cc2)c(C)s1 [Compound 13, N-(4-(5-(5-chloro-2-methoxypyridin-3-yl)-2-methylthiophen-3-yl)phenyl)-2,6-difluorobenzamide]"
2,10 nM,"Cc1sc(-c2nccs2)cc1-c1cnc(NC(=O)c2c(F)cccc2F)cn1 [Compound 15, 2,6-difluoro-N-(5-(2-methyl-5-(thiazol-2-yl)thiophen-3-yl)pyrazin-2-yl)benzamide]"
3,2 nM,"Cc1cc(-c2cccnc2)sc1-c1ccc(NC(=O)c2c(F)cccc2F)cc1 [Compound 6, 2,6-difluoro-N-(4-(3-methyl-5-(pyridin-3-yl)thiophen-2-yl)phenyl)benzamide]"
4,8 nM,"Cc1cc(-c2cncn2C)sc1-c1ccc(NC(=O)c2c(F)cccc2F)cc1 [Compound 3, 2,6-difluoro-N-(4-(3-methyl-5-(1-methyl-1H-imidazol-5-yl)thiophen-2-yl)phenyl)benzamide]"
5,3 nM,"Cc1cc(-c2ccno2)sc1-c1ccc(NC(=O)c2c(F)cccc2F)cc1 [Compound 1, 2,6-difluoro-N-(4-(5-(isoxazol-5-yl)-3-methylthiophen-2-yl)phenyl)benzamide]"
6,10 nM,"Cc1sc(-c2cnco2)cc1-c1ccc(NC(=O)c2c(F)cccc2F)nc1 [Compound 5, 2,6-difluoro-N-(5-(2-methyl-5-(oxazol-5-yl)thiophen-3-yl)pyridin-2-yl)benzamide]"
7,25 nM,"Cc1sc(-c2cncn2C)cc1-c1ccc(NC(=O)c2c(F)cccc2F)nc1 [Compound 17, 2,6-difluoro-N-(5-(2-methyl-5-(1-methyl-1H-imidazol-5-yl)thiophen-3-yl)pyridin-2-yl)benzamide]"
8,31 nM,"Cc1sc(-c2cnco2)cc1-c1ccc(NC(=O)c2c(F)cccc2F)cn1 [Compound 10, 2,6-difluoro-N-(6-(2-methyl-5-(oxazol-5-yl)thiophen-3-yl)pyridin-3-yl)benzamide]"
9,17 nM,"Cc1cnccc1C(=O)Nc1ccc(-c2cc(-c3cnco3)sc2C)cn1 [Compound 18, 3-methyl-N-(5-(2-methyl-5-(oxazol-5-yl)thiophen-3-yl)pyridin-2-yl)isonicotinamide]"
10,3 nM,"Cc1sc(-c2cccnc2)cc1-c1ccc(NC(=O)c2c(F)cccc2F)cc1 [Compound 7, 2,6-difluoro-N-(4-(2-methyl-5-(pyridin-3-yl)thiophen-3-yl)phenyl)benzamide]"
11,27 nM,"Cc1sc(-c2cncn2C)cc1-c1cnc(NC(=O)c2c(F)cccc2F)cn1 [Compound 21, 2,6-difluoro-N-(5-(2-methyl-5-(1-methyl-1H-imidazol-5-yl)thiophen-3-yl)pyrazin-2-yl)benzamide]"
12,15 nM,"Cc1sc(-c2cnco2)cc1-c1cnc(NC(=O)c2c(F)cccc2F)cn1 [Compound 4, 2,6-difluoro-N-(5-(2-methyl-5-(oxazol-5-yl)thiophen-3-yl)pyrazin-2-yl)benzamide]"
13,27 nM,"CCn1cncc1-c1cc(-c2ccc(NC(=O)c3c(F)cccc3F)cc2)c(C)s1 [Compound 25, N-(4-(5-(1-ethyl-1H-imidazol-5-yl)-2-methylthiophen-3-yl)phenyl)-2,6-difluorobenzamide]"
14,7 nM,"Cc1cc(-c2nccs2)sc1-c1ccc(NC(=O)c2c(F)cccc2F)cc1 [Compound 2, 2,6-difluoro-N-(4-(3-methyl-5-(thiazol-2-yl)thiophen-2-yl)phenyl)benzamide]"
15,50 nM,"Cc1sc(-c2cnc[nH]2)cc1-c1ccc(NC(=O)c2c(F)cccc2F)nc1 [Compound 16, N-(5-(5-(1H-imidazol-5-yl)-2-methylthiophen-3-yl)pyridin-2-yl)-2,6-difluorobenzamide]"
16,3 nM,"Cc1sc(-c2cnccc2Cl)cc1-c1ccc(NC(=O)c2c(F)cccc2F)cc1 [Compound 19, N-(4-(5-(4-chloropyridin-3-yl)-2-methylthiophen-3-yl)phenyl)-2,6-difluorobenzamide]"
17,152 nM,"Cc1sc(-c2cnc[nH]2)cc1-c1cnc(NC(=O)c2c(F)cccc2F)cn1 [Compound 22, N-(5-(5-(1H-imidazol-5-yl)-2-methylthiophen-3-yl)pyrazin-2-yl)-2,6-difluorobenzamide]"
18,8 nM,"Cc1sc(-c2nccs2)cc1-c1ccc(NC(=O)c2c(F)cccc2F)nc1 [Compound 14, 2,6-difluoro-N-(5-(2-methyl-5-(thiazol-2-yl)thiophen-3-yl)pyridin-2-yl)benzamide]"
19,6 nM,"Cc1sc(-c2cncn2C)cc1-c1ccc(NC(=O)c2c(F)cccc2F)cc1 [Compound 23, 2,6-difluoro-N-(4-(2-methyl-5-(1-methyl-1H-imidazol-5-yl)thiophen-3-yl)phenyl)benzamide]"
20,19 nM,"COc1ccncc1-c1cc(-c2ccc(NC(=O)c3c(F)cccc3F)cc2)c(C)s1 [Compound 20, 2,6-difluoro-N-(4-(5-(4-methoxypyridin-3-yl)-2-methylthiophen-3-yl)phenyl)benzamide]"
21,9 nM,"Cc1sc(-c2nnco2)cc1-c1ccc(NC(=O)c2c(F)cccc2F)cc1 [Compound 9, 2,6-difluoro-N-(4-(2-methyl-5-(1,3,4-oxadiazol-2-yl)thiophen-3-yl)phenyl)benzamide]"
22,6 nM,"Cc1sc(-c2nccs2)cc1-c1ccc(NC(=O)c2c(F)cccc2F)cc1 [Compound 8, 2,6-difluoro-N-(4-(2-methyl-5-(thiazol-2-yl)thiophen-3-yl)phenyl)benzamide]"
23,9 nM,"Cc1ccncc1-c1cc(-c2ccc(NC(=O)c3c(F)cccc3F)cc2)c(C)s1 [Compound 12, 2,6-difluoro-N-(4-(2-methyl-5-(4-methylpyridin-3-yl)thiophen-3-yl)phenyl)benzamide]"
24,16 nM,"Cc1sc(-c2cnc[nH]2)cc1-c1ccc(NC(=O)c2c(F)cccc2F)cc1 [Compound 11, N-(4-(5-(1H-imidazol-5-yl)-2-methylthiophen-3-yl)phenyl)-2,6-difluorobenzamide]"

# Same assay, conditions: PHA 2.5 μg/mL, 20 hours, IL-2 ELISA, hydrochloride
row,IC50,SMILES
1,3 nM,"Cc1sc(-c2cncn2C)cc1-c1ccc(NC(=O)c2c(F)cccc2F)cc1 [Compound 24, 2,6-difluoro-N-(4-(2-methyl-5-(1-methyl-1H-imidazol-5-yl)thiophen-3-yl)phenyl)benzamide hydrochloride]"
